The values that follow come from US5605895A, “Cephalosporin antibiotics and processes for preparation thereof” (Lucky, Ltd., priority 1993, dated 1997).

The subject of series [1] is A. calcoaceticus 15473A. The experiment in a line: Minimum inhibitory concentration, agar dilution. The series is classed as cell-based. As to conditions: Acinetobacter calcoaceticus, Muller-Hinton agar, 10^7 CFU per ml, 37° C., 20 hours. Here is the method:
(§1) The minimum inhibitory concentration was determined by diluting the test compounds according to 2-fold dilution, suspending them in M uller-Hinton agar medium, inoculating the test strains having 10^7 CFU per 1 ml into the medium and then culturing the medium at 37° C. for 20 hours.

Series [2] concerns E. cloacae 1194E. The experiment in a line: Minimum inhibitory concentration, agar dilution. The series is classed as cell-based. As to conditions: Enterobacter cloacae, read-out: Minimum Inhibitory Concentration. On the procedure:
as §1
A general note: In agar dilution, organisms are placed on agar that contains the substance at set levels.

The subject of series [3] is E. coli 10536. Put plainly: Minimum inhibitory concentration, agar dilution. The series is classed as cell-based. As to conditions: Escherichia coli; E. coli 10536; Muller-Hinton agar, 10^7 CFU per ml, 37° C., 20 hours; read-out: Minimum Inhibitory Concentration. On the procedure: as §1
In series [4] the test system is E. coli 3190Y. Put plainly: Minimum inhibitory concentration, agar dilution. In kind it is cell-based. As to conditions: Escherichia coli, read-out: Minimum Inhibitory Concentration. On the procedure:
as §1

Series [5] has as its system E. coli TEM1 1193E. The experiment in a line: Minimum inhibitory concentration, agar dilution. As to conditions: Escherichia coli, TEM11193E, 20 h, read-out: Minimum Inhibitory Concentration. The series is classed as cell-based. On the procedure:
as §1

For series [6], the system named is E. coli TEM5 3739E. Put plainly: Minimum inhibitory concentration, agar dilution. As to conditions: Escherichia coli, TEM53739E, 20 h, read-out: Minimum Inhibitory Concentration. In kind it is cell-based. Here is the method: as §1
In series [7] the test system is E. coli TEM9 2639E. The experiment in a line: Minimum inhibitory concentration, agar dilution. In kind it is cell-based. As to conditions: Escherichia coli, TEM92639E, 20 h, read-out: Minimum Inhibitory Concentration. Here is the method: as §1
Series [8] has as its system K. aerogenes 1976E. Put plainly: Minimum inhibitory concentration, agar dilution. The series is classed as cell-based. As to conditions: Klebsiella aerogenes, Muller-Hinton agar, 10^7 CFU per ml, 37° C., 20 hours. On the procedure: as §1
Series [9] relates to P. aeruginosa 10145. The experiment in a line: Minimum inhibitory concentration, agar dilution. The series is classed as cell-based. As to conditions: Pseudomonas aeruginosa, Muller-Hinton agar, 10^7 CFU per ml, 37° C., 20 hours. On the procedure:
as §1

Series [10] concerns P. aeruginosa 1912E. The experiment in a line: Minimum inhibitory concentration, agar dilution. As to conditions: Pseudomonas aeruginosa, 20 h, read-out: Minimum Inhibitory Concentration. The series is classed as cell-based. Here is the method: as §1
The subject of series [11] is P. aeruginosa 6065Y. Put plainly: Minimum inhibitory concentration, agar dilution. The series is classed as cell-based. As to conditions: Pseudomonas aeruginosa, 20 h, read-out: Minimum Inhibitory Concentration. On the procedure:
as §1

The test system of series [12] is S. aureus 6538pA. Put plainly: Minimum inhibitory concentration, agar dilution. As to conditions: Staphylococcus aureus, Muller-Hinton agar, 10^7 CFU per ml, 37° C., 20 hours. The series is classed as cell-based. Here is the method: as §1
In series [13] the test system is S. aureus giorigio. The experiment in a line: Minimum inhibitory concentration, agar dilution. As to conditions: Staphylococcus aureus, Muller-Hinton agar, 10^7 CFU per ml, 37° C., 20 hours. In kind it is cell-based. Here is the method: as §1
The subject of series [14] is S. faecalis 29212A. Put plainly: Minimum inhibitory concentration, agar dilution. As to conditions: Enterococcus faecalis, read-out: Minimum Inhibitory Concentration. In kind it is cell-based. Here is the method:
as §1

Series [15] deals with S. marcescens 1826E. The experiment in a line: Minimum inhibitory concentration, agar dilution. In kind it is cell-based. As to conditions: Serratia marcescens, Muller-Hinton agar, 10^7 CFU per ml, 37° C., 20 hours. Here is the method: as §1
For series [16], the system named is S. typhimurium 14028A. The experiment in a line: Minimum inhibitory concentration, agar dilution. In kind it is cell-based. As to conditions: Salmonella enterica, read-out: Minimum Inhibitory Concentration. Here is the method:
as §1

Series [17] in a line: Pharmacokinetic properties in SD rats. As to conditions: rat; SD rats (male), intravenous, 20 mg/kg; blood, biological assay (agar well method). The series is classed as in vivo. On the procedure:
The pharmacokinetic properties of the compound of the present invention were determined using SD rats (.male.) weighing 220 to 340 g. Specifically, the test samples were administered in intravenous route in an amount of 20 mg/kg to 2 to 5 test animals. Blood was taken from femoral vein every hours after the administration and then subjected to a biological assay using agar well method to measure the blood concentration. The results of pharmacokinetic properties calculated from the above blood concentration are described in the following Table 3.

SMILES strings stand for the structures. ≈ marks a conversion by molar mass, not a printed value. Like-named read-outs stand apart in the source and are kept apart here.

In the case of `C[n+]1cc(C(=O)O)c(N)nc1SCC1=C(C(=O)[O-])N2C(=O)C(NC(=O)/C(=N\OC(C(=O)O)c3ccc(O)c(O)c3)c3csc(N)n3)[C@H]2SC1` (stereo partly drawn) [I-6(a), 7-[(Z)-2-(2-aminothiazol-4-yl)-2-(α-carboxy-3,4-dihydroxybenzyloxyimino)acetamido]-3-(4-amino-1-methyl-5-carboxypyrimidinium-2-yl)thiomethyl-3-cephem-4-carboxylate], the MIC was 0.5 µg/mL (≈ 0.682 µM) in series [1]; 4 µg/mL (≈ 5.46 µM) in series [2] (1194E, 20 h); 0.031 µg/mL (≈ 0.0423 µM) in [3]; 0.13 µg/mL (≈ 0.177 µM) in series [4] (3190Y, 20 h); 0.063 µg/mL (≈ 0.086 µM) in series [5]; 0.25 µg/mL (≈ 0.341 µM) in [6]. Also, the MIC in series [7] was 4 µg/mL (≈ 5.46 µM); in series [8], 0.25 µg/mL (≈ 0.341 µM); in series [9], 0.25 µg/mL (≈ 0.341 µM); in series [10] it was 0.25 µg/mL (≈ 0.341 µM); in series [11], 0.5 µg/mL (≈ 0.682 µM); in [12] it was 2 µg/mL (≈ 2.73 µM). Moreover, the MIC was 2 µg/mL (≈ 2.73 µM) in series [13]; 32 µg/mL (≈ 43.7 µM) in series [14] (29212A, 20 h); 1 µg/mL (≈ 1.36 µM) in series [15]; 0.031 µg/mL (≈ 0.0423 µM) in series [16] (S. typhimurium 14028A, Muller-Hinton agar, 10^7 CFU per ml, 37° C., 20 hours). In series [17], the area under the curve (AUC) was 37800 ng·h/mL. In [17], this compound displayed a half-life of 32 min.
On to `C[n+]1cc(CS(=O)(=O)O)c(N)nc1SCC1=C(C(=O)[O-])N2C(=O)C(NC(=O)/C(=N\OC(C(=O)O)c3ccc(O)c(O)c3)c3csc(N)n3)[C@H]2SC1` (stereo partly drawn) [I-7(a), 7-[(Z)-2-(2-aminothiazol-4-yl)-2-(α-carboxy-3,4-dihydroxybenzyloxyimino)acetamido]-3-(1-methyl-4-amino-5-sulfomethylpyrimidinium-2-yl)thiomethyl-3-cephem-4-carboxylate], for which the MIC in [1] was 0.5 µg/mL (≈ 0.639 µM); in series [2] (E. cloacae 1194E, Muller-Hinton agar, 10^7 CFU per ml, 37° C., 20 hours), 8 µg/mL (≈ 10.2 µM); in [3], 0.031 µg/mL (≈ 0.0396 µM); in series [4] (3190Y, 20 h), 0.063 µg/mL (≈ 0.0805 µM); in [5] it was 0.13 µg/mL (≈ 0.166 µM); in series [6] it was 0.5 µg/mL (≈ 0.639 µM). The MIC amounted to 4 µg/mL (≈ 5.11 µM) in series [7]; 0.5 µg/mL (≈ 0.639 µM) in series [8]; 0.25 µg/mL (≈ 0.319 µM) in [9]; 2 µg/mL (≈ 2.55 µM) in [12]; 2 µg/mL (≈ 2.55 µM) in [13]; 32 µg/mL (≈ 40.9 µM) in series [14] (29212A, 20 h). Moreover, the MIC in [15] was found to be 1 µg/mL (≈ 1.28 µM); in series [16] (TYPHIMURIUM, 20 h), 0.5 µg/mL (≈ 0.639 µM). In series [17], this compound gave an AUC of 53100 ng·h/mL. In series [17], this compound came in with a half-life of 48 min.
For `Cn1c(N)n[n+]2c(SCC3=C(C(=O)[O-])N4C(=O)C(NC(=O)C(=NOC(C(=O)O)c5ccc(O)c(O)c5)c5csc(N)n5)[C@H]4SC3)nc(N)cc12` (stereo partly drawn) [I-10(a), 7-[(Z)-2-(2-aminothiazol-4-yl)-2-(α-carboxy-3,4-dihydroxybenzyloxyimino)acetamido]-3-(2,7-diamino-1-methyl[1,2,4]triazolo[1,5-c]pyrimidinium-5-yl)thiomethyl-3-cephem-4-carboxylate], the MIC in series [1] was 0.5 µg/mL (≈ 0.672 µM); in series [2] (1194E, 20 h), 1 µg/mL (≈ 1.34 µM); in [3], 0.016 µg/mL (≈ 0.0215 µM); in [4] (E. coli 3190Y, Muller-Hinton agar, 10^7 CFU per ml, 37° C., 20 hours), 0.031 µg/mL (≈ 0.0417 µM); in series [5], 0.063 µg/mL (≈ 0.0847 µM); in series [6], 0.25 µg/mL (≈ 0.336 µM). For the same compound, the MIC in series [7] is 1 µg/mL (≈ 1.34 µM); in series [8], 0.13 µg/mL (≈ 0.175 µM); in series [9], 0.25 µg/mL (≈ 0.336 µM); in [10], 0.5 µg/mL (≈ 0.672 µM); in [11], 0.5 µg/mL (≈ 0.672 µM); in [12] it was 0.5 µg/mL (≈ 0.672 µM). Moreover, the MIC in series [13] was determined as 0.25 µg/mL (≈ 0.336 µM); in series [14] (S. faecalis 29212A, Muller-Hinton agar, 10^7 CFU per ml, 37° C., 20 hours), 8 µg/mL (≈ 10.8 µM); in series [15], 0.25 µg/mL (≈ 0.336 µM); in series [16] (TYPHIMURIUM, 20 h), 0.063 µg/mL (≈ 0.0847 µM). Besides, the exposure (AUC) in series [17] is 66000 ng·h/mL. In series [17], this compound returned a half-life of 58 min.

Broadly, the AUC is the area under the concentration-time curve, a measure of exposure. Read a low AUC as less exposure. One may read the half-life as how long it takes for the measured level to halve. Higher therefore signals slow decline.
